Values of other authors, collected in patent US8512794B2, “Oleate ester phytosterol compositions” (Perlman Consulting, LLC, priority 2010, dated 2013).

Tested on: humans

Row | Compound | lowering of serum cholesterol (12-18 g per day in divided doses, males with atherosclerosis (Faquhar et al. 1956)) | decrease of plasma cholesterol level (9-18 grams per day, coarse powdered form)
1 | CC[C@H](CC[C@@H](C)[C@H]1CC[C@H]2[C@@H]3CC=C4C[C@@H](O)CC[C@]4(C)[C@H]3CC[C@]12C)C(C)C [beta sitosterol] | 15-20% | 
2 | CC[C@H](CC[C@@H](C)[C@H]1CC[C@H]2[C@@H]3CC=C4C[C@@H](O)CC[C@]4(C)[C@H]3CC[C@]12C)C(C)C [sitosterol] |  | approximately 15%
